Measured values published in the supplement of paper PMC10307832.

Tests used:
Experiment in all cases: relative viability (nuclei count vs DMSO), 5 days (fraction); higher = more cells survive
ABC-1 = test system: ABC-1
How it was run: (§1)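 For relative viability, nuclei counts in treated wells were divided by those in vehicle wells. Lung cancer cell lines had been pin-tool dosed in 1536-well plates the day after seeding and cultured for 5 days, then fixed and stained in one step (final 0.05% Triton X-100, 1% formaldehyde, 1 ug/ml Hoechst) and imaged at 4×. Doses were one drug alone or a fixed anchor-drug dose plus five library-drug doses (not always all listed) in √10 steps, and values are duplicate-plate medians.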

BEN = test system: BEN
How it was run: as §1

EPLC-272H = test system: EPLC-272H
How it was run: as §1

HCC-827 = test system: HCC-827
How it was run: as §1

HOP-62 = test system: HOP-62
How it was run: as §1

LU99A = test system: LU99A
How it was run: as §1

NCI-H1355 = test system: NCI-H1355
How it was run: as §1

NCI-H1666 = test system: NCI-H1666
How it was run: as §1

NCI-H1975 = test system: NCI-H1975
How it was run: as §1

NCI-H2170 = test system: NCI-H2170
How it was run: as §1

NCI-H23 = test system: NCI-H23
How it was run: as §1

NCI-H2405 = test system: NCI-H2405
How it was run: as §1

NCI-H3122 = test system: NCI-H3122
How it was run: as §1

NCI-H322M = test system: NCI-H322M
How it was run: as §1

NCI-H358 = test system: NCI-H358
How it was run: as §1

NCI-H520 = test system: NCI-H520
How it was run: as §1

NCI-H596 = test system: NCI-H596
How it was run: as §1

NCI-H647 = test system: NCI-H647
How it was run: as §1

NCI-H727 = test system: NCI-H727
How it was run: as §1

NCI-H838 = test system: NCI-H838
How it was run: as §1

PC-14 = test system: PC-14
How it was run: as §1

UMC-11 = test system: UMC-11
How it was run: as §1

Cc1cnc(-c2cnc(NCCNc3ccc(C#N)cn3)nc2-c2ccc(Cl)cc2Cl)[nH]1 + Cc1cc(Nc2cc(N3CCN(C)CC3)nc(Sc3ccc(NC(=O)C4CC4)cc3)n2)n[nH]1 [Tozasertib] (partner 0.1 µM)
relative viability (ABC-1; first compound 0.08 µM): 0.213 | relative viability (ABC-1; first compound 0.253 µM): 0.158 | relative viability (ABC-1; first compound 0.8 µM): 0.22 | relative viability (ABC-1; first compound 2.53 µM): 0.221 | relative viability (BEN; first compound 0.08 µM): 0.517 | relative viability (BEN; first compound 0.253 µM): 0.609 | relative viability (BEN; first compound 0.8 µM): 0.476 | relative viability (BEN; first compound 2.53 µM): 0.52 | relative viability (EPLC-272H; first compound 0.08 µM): 0.321 | relative viability (EPLC-272H; first compound 0.253 µM): 0.255 | relative viability (EPLC-272H; first compound 0.8 µM): 0.249 | relative viability (EPLC-272H; first compound 2.53 µM): 0.197 | relative viability (HCC-827; first compound 0.08 µM): 0.432 | relative viability (HCC-827; first compound 0.8 µM): 0.44 | relative viability (HCC-827; first compound 2.53 µM): 0.407 | relative viability (HOP-62; first compound 0.08 µM): 0.321 | relative viability (HOP-62; first compound 0.253 µM): 0.353 | relative viability (HOP-62; first compound 0.8 µM): 0.36 | relative viability (HOP-62; first compound 2.53 µM): 0.288 | relative viability (LU99A; first compound 0.08 µM): 0.257 | relative viability (LU99A; first compound 0.253 µM): 0.301 | relative viability (LU99A; first compound 0.8 µM): 0.256 | relative viability (LU99A; first compound 2.53 µM): 0.243 | relative viability (NCI-H1355; first compound 0.08 µM): 0.662 | relative viability (NCI-H1355; first compound 0.253 µM): 0.474 | relative viability (NCI-H1355; first compound 0.8 µM): 0.56 | relative viability (NCI-H1355; first compound 2.53 µM): 0.374 | relative viability (NCI-H1666; first compound 0.08 µM): 0.63 | relative viability (NCI-H1666; first compound 0.253 µM): 0.593 | relative viability (NCI-H1666; first compound 0.8 µM): 0.623 | relative viability (NCI-H1666; first compound 2.53 µM): 0.626 | relative viability (NCI-H1975; first compound 0.08 µM): 0.717 | relative viability (NCI-H1975; first compound 0.253 µM): 0.659 | relative viability (NCI-H1975; first compound 0.8 µM): 0.508 | relative viability (NCI-H1975; first compound 2.53 µM): 0.132 | relative viability (NCI-H2170; first compound 0.08 µM): 0.73 | relative viability (NCI-H2170; first compound 0.253 µM): 0.566 | relative viability (NCI-H2170; first compound 0.8 µM): 0.713 | relative viability (NCI-H2170; first compound 2.53 µM): 0.699 | relative viability (NCI-H23; first compound 0.08 µM): 0.383 | relative viability (NCI-H23; first compound 0.253 µM): 0.26 | relative viability (NCI-H23; first compound 0.8 µM): 0.298 | relative viability (NCI-H23; first compound 2.53 µM): 0.259 | relative viability (NCI-H2405; first compound 0.08 µM): 0.764 | relative viability (NCI-H2405; first compound 0.253 µM): 0.697 | relative viability (NCI-H2405; first compound 0.8 µM): 0.714 | relative viability (NCI-H2405; first compound 2.53 µM): 0.505 | relative viability (NCI-H3122; first compound 0.08 µM): 0.414 | relative viability (NCI-H3122; first compound 0.8 µM): 0.392 | relative viability (NCI-H3122; first compound 2.53 µM): 0.33 | relative viability (NCI-H322M; first compound 0.08 µM): 0.51 | relative viability (NCI-H322M; first compound 0.253 µM): 0.464 | relative viability (NCI-H322M; first compound 0.8 µM): 0.438 | relative viability (NCI-H322M; first compound 2.53 µM): 0.466 | relative viability (NCI-H358; first compound 0.08 µM): 0.101 | relative viability (NCI-H358; first compound 0.253 µM): 0.0983 | relative viability (NCI-H358; first compound 0.8 µM): 0.137 | relative viability (NCI-H358; first compound 2.53 µM): 0.11 | relative viability (NCI-H520; first compound 0.08 µM): 0.517 | relative viability (NCI-H520; first compound 0.253 µM): 0.444 | relative viability (NCI-H520; first compound 0.8 µM): 0.397 | relative viability (NCI-H520; first compound 2.53 µM): 0.499 | relative viability (NCI-H596; first compound 0.08 µM): 0.925 | relative viability (NCI-H596; first compound 0.253 µM): 0.752 | relative viability (NCI-H596; first compound 0.8 µM): 0.839 | relative viability (NCI-H596; first compound 2.53 µM): 0.793 | relative viability (NCI-H647; first compound 0.08 µM): 0.306 | relative viability (NCI-H647; first compound 0.253 µM): 0.163 | relative viability (NCI-H647; first compound 0.8 µM): 0.263 | relative viability (NCI-H647; first compound 2.53 µM): 0.172 | relative viability (NCI-H727; first compound 0.08 µM): 0.639 | relative viability (NCI-H727; first compound 0.253 µM): 0.497 | relative viability (NCI-H727; first compound 0.8 µM): 0.603 | relative viability (NCI-H727; first compound 2.53 µM): 0.422 | relative viability (NCI-H838; first compound 0.08 µM): 0.293 | relative viability (NCI-H838; first compound 0.253 µM): 0.235 | relative viability (NCI-H838; first compound 0.8 µM): 0.281 | relative viability (NCI-H838; first compound 2.53 µM): 0.272 | relative viability (PC-14; first compound 0.08 µM): 0.611 | relative viability (PC-14; first compound 0.253 µM): 0.47 | relative viability (PC-14; first compound 0.8 µM): 0.551 | relative viability (PC-14; first compound 2.53 µM): 0.549 | relative viability (UMC-11; first compound 0.08 µM): 0.19 | relative viability (UMC-11; first compound 0.253 µM): 0.191 | relative viability (UMC-11; first compound 0.8 µM): 0.227 | relative viability (UMC-11; first compound 2.53 µM): 0.213
